Experimental data taken from patent publication US20100029657A1, “Bridged, Bicyclic Heterocyclic or Spiro Bicyclic Heterocyclic Derivatives of Pyrazolo[1, 5-A]Pyrimidines, Methods for Preparation and Uses Thereof” (Wyeth, priority 2008, published 2010).

Each molecule was assayed against T1, Flag/GST-tagged recombinant human B-Raf (Homo sapiens, UniProt P15056) (assay: B-Raf kinase assay (phosphorylation of GST-MEK1, phospho-MEK1 antibody/Europium detection)). Conditions: B-Raf IC50 Data for compounds of Formula A; read-out: Mean IC50.
T1 construct: Flag; GST; made in house; host or cells: Sf9 insect cells (B-Raf); E. coli (MEK1-GST)
Format: biochemical
Experimental: B-Raf1 Kinase Assay Procedure: B-Raf-1 is used to phosphorylate GST-MEK1.
• 1. Assay Dilution Buffer (ADB): 20 mM MOPS, pH 7.2, 25 mM β-glycerol phosphate, 5 mM EGTA, 1 mM sodium orthovanadate, 1 mM dithiothreitol, 0.01% Triton X-100. • 2. Magnesium/ATP Cocktail: ADB solution (minus Triton X-100) plus 200 μM cold ATP and 40 mM magnesium chloride. • 4. Active Kinase: Active B-Raf: Used at 0.2 nM per assay point. • 5. […] TBST—Tris (50 mM, pH 7.5), NaCl (150 mM), Tween-20 (0.05%) • 7. Anti-GST Ab (GE) • 8. Anti pMEK Ab (Upstate) • 9. Anti-rabbit Ab/Europium conjugate (Wallac).
B-Raf Assay Procedure: • 1. Added 25 μL of ADB containing B-Raf and Mek per assay (i.e. per well of a 96 well plate) • 2. Added 25 μL of 0.2 mM ATP and 40 mM magnesium chloride in Magnesuium/ATP Cocktail. • 3. Incubated for 45 minutes at RT with occasional shaking. • 4. Transferred this mixture to an anti-GST Ab coated 96 well plate (Nunc Immunosorb plates coated o/n with a-GST. Plate freshly washed 3×with TBS-T before use. • 5. Incubated o/n at […] in cold room. • 6. Washed 3× with TBST, ed Anti-Phospho MEK1 (1:1000, dilution depended upon lot) • 7. Incubated for 60 minutes at RT in a shaking incubator • 8. Washed 3× with TBST, add Anti-rabbit Ab/Europium conjugate (Wallac) (1:500, dilution depended upon lot) • 9. Incubated for 60 minutes at RT on a platform shaker. • 10. Washed plate 3× with TBS-T • 11. Added 100 μL of Wallac Delfia Enhancement Solution and agitated for 10 minutes. • 12. Read plates in Wallac Victor model Plate Reader. • 13.
The % inhibition was determined for each compound concentration.

T1 sequence (P15056 whole entry): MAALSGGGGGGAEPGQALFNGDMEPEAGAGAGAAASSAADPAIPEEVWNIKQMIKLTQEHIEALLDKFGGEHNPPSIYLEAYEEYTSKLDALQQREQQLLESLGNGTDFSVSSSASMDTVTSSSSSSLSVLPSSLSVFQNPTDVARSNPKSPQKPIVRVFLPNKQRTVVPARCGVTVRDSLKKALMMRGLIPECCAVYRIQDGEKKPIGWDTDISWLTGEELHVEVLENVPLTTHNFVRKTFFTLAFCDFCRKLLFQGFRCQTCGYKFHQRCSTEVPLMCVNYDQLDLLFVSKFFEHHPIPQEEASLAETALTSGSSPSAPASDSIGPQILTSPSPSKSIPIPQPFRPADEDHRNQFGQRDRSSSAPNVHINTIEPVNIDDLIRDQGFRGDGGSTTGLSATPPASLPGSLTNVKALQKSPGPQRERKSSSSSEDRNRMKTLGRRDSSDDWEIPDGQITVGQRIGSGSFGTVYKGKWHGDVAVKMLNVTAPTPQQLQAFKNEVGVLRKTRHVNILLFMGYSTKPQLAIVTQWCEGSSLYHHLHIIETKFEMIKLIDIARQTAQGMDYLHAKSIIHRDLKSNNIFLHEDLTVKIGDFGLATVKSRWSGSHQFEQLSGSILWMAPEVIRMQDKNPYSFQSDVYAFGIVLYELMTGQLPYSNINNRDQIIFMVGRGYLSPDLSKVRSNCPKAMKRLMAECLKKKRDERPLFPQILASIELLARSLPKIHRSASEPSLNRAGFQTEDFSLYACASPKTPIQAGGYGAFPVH

Row | IC50 | SMILES
1 | 39.4 nM | CC(C)(C)OC(=O)N1CCC[C@H]1C(=O)N1C2CCC1CC(c1ccnc3c(-c4cccc5[nH]ncc45)c(-c4ccncc4)nn13)C2 (stereo partly drawn) [Example 128, tert-butyl (2S)-2-({3-[3-(1H-indazol-4-yl)-2-pyridin-4-ylpyrazolo[1,5-a]pyrimidin-7-yl]-8-azabicyclo[3.2.1]oct-8-yl}carbonyl)pyrrolidine-1-carboxylate]
2 | < 0.3 nM | Fc1ccc(-c2c(-c3ccncc3)nn3c2nccc3[C@H]2CC[C@H](N3C[C@@H]4C[C@H]3CN4)CC2)c2cn[nH]c12 [Example 183, 7-{trans-4-[(1S,4S)-2,5-diazabicyclo[2.2.1]hept-2-yl]cyclohexyl}-3-(7-fluoro-1H-indazol-4-yl)-2-pyridin-4-ylpyrazolo[1,5-a]pyrimidine]
3 | 46 nM | CCN1C2CCC1CC(c1ccnc3c(-c4cccc5[nH]ncc45)c(-c4ccncc4)nn13)C2 (stereo not drawn) [Example 90, 7-(8-Ethyl-8-azabicyclo[3.2.1]octan-3-yl)-3-(1H-indazol-4-yl)-2-(pyridin-4-yl)pyrazolo[1,5-a]pyrimidine]
4 | 3.7 nM | c1cc(-c2c(-c3ccncc3)nn3c2nccc3[C@H]2CC[C@H](N3CC4CCC(C3)O4)CC2)c2cn[nH]c2c1 (relative stereo) [Example 153, 3-(1H-indazol-4-yl)-7-[trans-4-(8-oxa-3-azabicyclo[3.2.1]oct-3-yl)cyclohexyl]-2-pyridin-4-ylpyrazolo[1,5-a]pyrimidine]
5 | 1.7 nM | Fc1cc(-c2ccnc3c(-c4cccc5[nH]ncc45)c(-c4ccncc4)nn23)ccc1N1C[C@@H]2C[C@H]1CN2 [Example 185, 7-{4-[(1S,4S)-2,5-diazabicyclo[2.2.1]hept-2-yl]-3-fluorophenyl}-3-(1H-indazol-4-yl)-2-pyridin-4-ylpyrazolo[1,5-a]pyrimidine]
6 | < 0.3 nM | Brc1cc(N2C[C@@H]3C[C@H]2CN3)ccc1-c1ccnc2c(-c3cccc4[nH]ncc34)c(-c3ccncc3)nn12 [Example 187, 7-{2-bromo-4-[(1S,4S)-2,5-diazabicyclo[2.2.1]hept-2-yl]phenyl}-3-(1H-indazol-4-yl)-2-pyridin-4-ylpyrazolo[1,5-a]pyrimidine]
7 | 42 nM | c1cc(CN2C[C@@H]3C[C@H]2CN3)cc(-c2ccnc3c(-c4cccc5[nH]ncc45)c(-c4ccncc4)nn23)c1 [Example 208, 7-{3-[(1S,4S)-2,5-diazabicyclo[2.2.1]hept-2-ylmethyl]phenyl}-3-(1H-indazol-4-yl)-2-pyridin-4-ylpyrazolo[1,5-a]pyrimidine]
8 | 61.8 nM | CN(C)CC(=O)N1C2CCC1CC(c1ccnc3c(-c4cccc5[nH]ncc45)c(-c4ccncc4)nn13)C2 (stereo not drawn) [Example 116, 2-{3-[3-(1H-indazol-4-yl)-2-pyridin-4-ylpyrazolo[1,5-a]pyrimidin-7-yl]-8-azabicyclo[3.2.1]oct-8-yl}-N,N-dimethyl-2-oxoethanamine]
9 | 0.4 nM | COc1cccc(-c2c(-c3ccncc3)nn3c(-c4ccc(N5C[C@@H]6C[C@H]5CN6)cc4F)ccnc23)c1 [Example 132, 7-{4-[(1S,4S)-2,5-diazabicyclo[2.2.1]hept-2-yl]-2-fluorophenyl}-3-(3-methoxyphenyl)-2-pyridin-4-ylpyrazolo[1,5-a]pyrimidine]
10 | > 1000 nM | COc1cc(-c2c(-c3ccncc3)nn3c(-c4ccc(F)cc4N4C[C@@H]5C[C@H]4CN5C(=O)OC(C)(C)C)ccnc23)ccc1Cl [Example 48, (1S,4S)-tert-Butyl 5-(2-(3-(4-chloro-3-methoxyphenyl)-2-(pyridin-4-yl)pyrazolo[1,5-a]pyrimidin-7-yl)-5-fluorophenyl)-2,5-diazabicyclo[2.2.1]-heptane-2-carboxylate]
11 | > 1000 nM | CCN1C2CCC1CC(c1ccnc3c(-c4ccc(NC(N)=O)cc4)c(-c4ccncc4)nn13)C2 (stereo not drawn) [Example 23, 1-(4-(7-(8-Ethyl-8-azabicyclo[3.2.1]octan-3-yl)-2-(pyridin-4-yl)pyrazolo[1,5-a]pyrimidin-3-yl)phenyl)urea]
12 | 0.5 nM | Oc1cccc(-c2c(-c3ccncc3)nn3c(-c4ccc(N5C[C@@H]6C[C@H]5CN6)cc4)ccnc23)c1 [Example 29, 3-{7-[4-((1S,4S)-2,5-Diaza-bicyclo[2.2.1]hept-2-yl)-phenyl]-2-pyridin-4-yl-pyrazolo[1,5-a]pyrimidin-3-yl}-phenol]
13 | 1.3 nM | Fc1ccc(-c2c(-c3ccncc3)nn3c2nccc3[C@H]2CC[C@H](N3C4CCC3COC4)CC2)c2cn[nH]c12 (relative stereo) [Example 182, 3-(7-fluoro-1H-indazol-4-yl)-7-[trans-4-(3-oxa-8-azabicyclo[3.2.1]oct-8-yl)cyclohexyl]-2-pyridin-4-ylpyrazolo[1,5-a]pyrimidine]
14 | 2 nM | CCOC(=O)N1C2CCC1CC(c1ccnc3c(-c4ccc(Cl)c(O)c4)c(-c4ccncc4)nn13)C2 (stereo not drawn) [Example 11, Ethyl 3-(3-(4-chloro-3-hydroxyphenyl)-2-(pyridin-4-yl)pyrazolo[1,5-a]pyrimidin-7-yl)-8-azabicyclo[3.2.1]octane-8-carboxylate]
15 | < 0.3 nM | Cc1cc(N2C[C@@H]3C[C@H]2CN3C)ccc1-c1ccnc2c(-c3cccc(O)c3)c(-c3ccncc3)nn12 [Example 58, 3-(7-(2-Methyl-4-((1S,4S)-5-methyl-2,5-diazabicyclo[2.2.1]heptan-2-yl)phenyl)-2-(pyridin-4-yl)pyrazolo[1,5-a]pyrimidin-3-yl)phenol]
16 | < 0.3 nM | Fc1cc(N2C[C@@H]3C[C@H]2CN3C2CCC2)cc(F)c1-c1ccnc2c(-c3cccc4[nH]ncc34)c(-c3ccncc3)nn12 [Example 170, 7-{4-[(1S,4S)-5-cyclobutyl-2,5-diazabicyclo[2.2.1]hept-2-yl]-2,6-difluorophenyl}-3-(1H-indazol-4-yl)-2-pyridin-4-ylpyrazolo[1,5-a]pyrimidine]
17 | 1 nM | CCOC(=O)N1C2CCC1CC(c1ccn3nc(-c4ccncc4)c(-c4ccc(F)c5[nH]ncc45)c3n1)C2 (stereo not drawn) [Example 131, ethyl 3-[3-(7-fluoro-1H-indazol-4-yl)-2-pyridin-4-ylpyrazolo[1,5-a]pyrimidin-5-yl]-8-azabicyclo[3.2.1]octane-8-carboxylate]
18 | < 0.3 nM | Oc1cc(-c2c(-c3ccncc3)nn3c(-c4ccc(N5C[C@@H]6C[C@H]5CN6)cc4)ccnc23)ccc1F [Example 33, 5-(7-(4-((1S,4S)-2,5-Diazabicyclo[2.2.1]heptan-2-yl)phenyl)-2-(pyridin-4-yl)pyrazolo[1,5-a]pyrimidin-3-yl)-2-fluorophenol]
19 | > 1000 nM | CCN1C2CCC1CC(c1ccnc3c(-c4ccc(NC(=O)OC)cc4)c(-c4ccncc4)nn13)C2 (stereo not drawn) [Example 67, Methyl 4-(7-(8-ethyl-8-azabicyclo[3.2.1]octan-3-yl)-2-(pyridin-4-yl)pyrazolo[1,5-a]pyrimidin-3-yl)phenylcarbamate]

Row | SMILES | IC50
20 | Oc1cccc(-c2c(-c3ccncc3)nn3c(-c4ccc(N[C@@H]5CN6CCC5CC6)nc4)ccnc23)c1 [Example 2, 3-(7-{6-[(3S)-1-Azabicyclo[2.2.2]oct-3-ylamino]pyridin-3-yl}-2-pyridin-4-ylpyrazolo[1,5-a]pyrimidin-3-yl)phenol] | 2 nM
21 | CCOC(=O)N1C2CCC1CC(c1ccnc3c(-c4cccc(OC)c4)c(-c4ccncc4)nn13)C2 (stereo not drawn) [Example 7, Ethyl 3-(3-(3-methoxyphenyl)-2-(pyridin-4-yl)pyrazolo[1,5-a]pyrimidin-7-yl)-8-azabicyclo[3.2.1]octane-8-carboxylate] | 87 nM
